Records with an inconclusive call do not appear. Active and inactive are the calls of the source.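 How the source made its calls: active means fitted curve reaches activity 50 in the expected rising direction at or below the top valid tested dose; inconclusive means no clear call, values can overlap the other calls; inactive means activity in the wrong direction, and the rest.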

This assay has as its target Virion infectivity factor (Human immunodeficiency virus type 1 group M subtype B (isolate BH10)) + Virion infectivity factor (Human immunodeficiency virus type 1 group M subtype B (isolate BRU/LAI)) + Virion infectivity factor (Human immunodeficiency virus type 1 group M subtype B (isolate PCV12)) + Virion infectivity factor (Human immunodeficiency virus type 1 group M subtype B (isolate HXB2)) (UniProt P69720+P69721+P69722+P69723). Nature of the assay: Vif multimerization inhibitor potency, dose response, imaging, HEK293T, cherry-picks (AID 652241).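 Further: imaged cell signal that rises when Vif self-association is disrupted.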 The note with it: 24 h.

Chain of Virion infectivity factor (Human immunodeficiency virus type 1 group M subtype B (isolate BH10)) + Virion infectivity factor (Human immunodeficiency virus type 1 group M subtype B (isolate BRU/LAI)) + Virion infectivity factor (Human immunodeficiency virus type 1 group M subtype B (isolate PCV12)) + Virion infectivity factor (Human immunodeficiency virus type 1 group M subtype B (isolate HXB2)) (P69720 whole entry, looked up): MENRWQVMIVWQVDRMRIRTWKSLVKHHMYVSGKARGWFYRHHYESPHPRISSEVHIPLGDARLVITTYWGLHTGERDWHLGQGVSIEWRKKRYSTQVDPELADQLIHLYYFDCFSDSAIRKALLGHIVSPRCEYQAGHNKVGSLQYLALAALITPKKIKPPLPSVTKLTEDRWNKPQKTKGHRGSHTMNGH
Chain of Virion infectivity factor (Human immunodeficiency virus type 1 group M subtype B (isolate BH10)) + Virion infectivity factor (Human immunodeficiency virus type 1 group M subtype B (isolate BRU/LAI)) + Virion infectivity factor (Human immunodeficiency virus type 1 group M subtype B (isolate PCV12)) + Virion infectivity factor (Human immunodeficiency virus type 1 group M subtype B (isolate HXB2)) (P69721 whole entry, looked up): as the sequence (P69720 whole entry, looked up) above
Chain of Virion infectivity factor (Human immunodeficiency virus type 1 group M subtype B (isolate BH10)) + Virion infectivity factor (Human immunodeficiency virus type 1 group M subtype B (isolate BRU/LAI)) + Virion infectivity factor (Human immunodeficiency virus type 1 group M subtype B (isolate PCV12)) + Virion infectivity factor (Human immunodeficiency virus type 1 group M subtype B (isolate HXB2)) (P69722 whole entry, looked up): as the sequence (P69720 whole entry, looked up) above
Chain of Virion infectivity factor (Human immunodeficiency virus type 1 group M subtype B (isolate BH10)) + Virion infectivity factor (Human immunodeficiency virus type 1 group M subtype B (isolate BRU/LAI)) + Virion infectivity factor (Human immunodeficiency virus type 1 group M subtype B (isolate PCV12)) + Virion infectivity factor (Human immunodeficiency virus type 1 group M subtype B (isolate HXB2)) (P69723 whole entry, looked up): as the sequence (P69720 whole entry, looked up) above

As for `Cc1ccc(C(c2cc(Cl)c3cccnc3c2O)N2CCN(C)CC2)cc1` (centres undefined), the AC50 was 5.7 µM.
With `Cc1ccc2c(c1)N(CC(=O)NCC1CCCO1)C(=O)C(C(C)C)O2` (centres undefined), where the note is “at 19.5 µM (top of the series)”, the “activity, higher = inhibition” value is “inactive”.
For the compound `Cc1cc(NC(=O)NC2(C(F)(F)F)Oc3ccc(Cl)cc3O2)no1` (centres undefined), the AC50 is 7.12 µM.
Regarding `COc1ccc2cc(-c3cc(C(=O)OCC(=O)NC4CCS(=O)(=O)C4)c4ccccc4n3)ccc2c1` (centres undefined), the AC50 is 14.7 µM.
For the compound `Cc1nn(Cc2c(Cl)cccc2Cl)c(C)c1NC(=O)c1cnn2c(C(F)F)cc(-c3ccccc3)nc12`, the AC50 is 16.5 µM.
In the case of `COc1ccc(-c2coc3cc(O)ccc3c2=O)cc1`, under “at 19.5 µM (top of the series)”, the “activity, higher = inhibition” value was “inactive”.
Still for that read-out and setting: with `C=CCNc1sc(C(=O)c2ccc(Br)s2)c(N)c1C#N` the entry was “inactive”; with `CCOc1ccc(S(=O)(=O)NCc2ccccn2)cc1NC(=O)c1ccccc1`, “inactive”.
On to `CC(=O)Nc1ccc(S(=O)(=O)N2c3ccccc3C(C)=CC2(C)C)cc1`, for which the AC50 is > 19.5 µM (inactive).
As to `CCN1CCN(c2cc(=O)n(-c3cc(Cl)ccc3C)c(=O)[nH]2)CC1`, the “activity, higher = inhibition” value (at 19.5 µM (top of the series)) was “inactive”.
Take `CC(O)CN(C)CC/C=C1/c2ccccc2CSc2ccccc21` (centres undefined): the “activity, higher = inhibition” value (at 19.5 µM (top of the series)) is “inactive”.
For the compound `COc1ccc(NC(=O)Cn2ncc(Cl)c(Cl)c2=O)cc1S(=O)(=O)N1CCOCC1`, the AC50 was > 19.5 µM (inactive).
As for `Cc1ccc(N(C)S(=O)(=O)c2ccc(-c3ccc(=O)[nH]n3)s2)cc1C`, the “activity, higher = inhibition” value (at 19.5 µM (top of the series)) is “inactive”.
For `S=C(Nc1ccccc1)N1CCn2c(nc3ccccc32)C1`, under “at 19.5 µM (top of the series)”, the “activity, higher = inhibition” value was “inactive”.
With `CCOc1ccc(NC(=O)CN(C)C(=O)c2cc(S(=O)(=O)N3CCCCC3)ccc2Cl)cc1OCC`, under “at 19.5 µM (top of the series)”, the “activity, higher = inhibition” value is “inactive”.
On to `CNC(=O)c1ccc(NC(=O)c2cc(S(=O)(=O)N(C)C)ccc2N2CCCC2)cc1`, for which, for the setting “at 19.5 µM (top of the series)”, the “activity, higher = inhibition” value was “inactive”.
`N#Cc1c(C(F)(F)F)cc(-c2ccco2)nc1SCc1ccncc1`: the AC50 was 15.8 µM.
For `CCC(=O)N(CCC1(C(C)C)CCOC(C)(C)C1)Cc1ccco1` (centres undefined), the “activity, higher = inhibition” value (at 19.5 µM (top of the series)) is “inactive”.
The same measure, in the same setting: with `COc1ccc(C(=O)NCc2oc(-c3ccccc3)cc2C(=O)O)cc1` the entry was “inactive”.
In the case of `C[C@@H]1CN([C@H](C)CO)C(=O)CCCn2cc(nn2)CO[C@H]1CN(C)C(=O)c1ccccc1`, the “activity, higher = inhibition” value (at 19.5 µM (top of the series)) was “inactive”.
The same measure, in the same setting: the same measure for `CC(OC(=O)c1c[nH]c2ccccc12)C(=O)N1CCCC1` (centres undefined): “inactive”; for `O=C(CCN1CCOCC1)Nc1ccc(Cl)cc1`: “inactive”.
`Cc1cc(-c2nnc(SCC(=O)c3ccc(Cl)cc3)o2)no1`: where the note is “at 19.5 µM (top of the series)”, the “activity, higher = inhibition” value was “inactive”.
Regarding `Cc1ccc(CCC(=O)Nc2ncc(Cc3cc(Cl)ccc3Cl)s2)o1`, the AC50 is 2.02 µM.
For `Cc1nn2c(COc3ccc(NC(=O)c4ccccc4Cl)cc3)nnc2c2ccccc12`, the “activity, higher = inhibition” value (at 19.5 µM (top of the series)) is “inactive”.
Take `C=CCn1c(O)c(C2=c3ccccc3=NC2=O)s/c1=N/c1nccs1`: the AC50 was > 19.5 µM (inactive).
Take `COc1ccc(-c2cc(N)n(S(=O)(=O)c3c(F)c(F)c(F)c(F)c3F)n2)cc1OC`: the AC50 was 13.4 µM.
In the case of `COc1cc(NC(=O)c2ccc(C)cc2C)ccc1NC(=O)c1cccs1`, the “activity, higher = inhibition” value (at 19.5 µM (top of the series)) was “inactive”.
With `CCCOCCOC(=O)c1[nH]c2c(c1C)C(=O)CC(c1cc(OC)ccc1OC)C2` (centres undefined), the “activity, higher = inhibition” value (at 19.5 µM (top of the series)) was “inactive”.
Take `Cc1nnc2ccc(-c3ccc(NS(=O)(=O)c4ccc(Cl)s4)cc3)nn12`: the AC50 is 14.5 µM.
`CCN(CC)c1ccc2cc(C(N)=O)c(=O)oc2c1`: the AC50 was > 19.5 µM (inactive).
`CC(NC(=O)CSc1nc2c(c(C(F)(F)F)n1)CCc1ccccc1-2)c1ccccc1` (centres undefined): the “activity, higher = inhibition” value (at 19.5 µM (top of the series)) was “inactive”.
As for `COc1ccc(-c2cc(C(F)(F)F)n3nc(C(=O)NCc4ccco4)c(Cl)c3n2)cc1`, the AC50 is 8.52 µM.
On to `CCCCOc1ncnc2c1[nH]c1ccccc12`, for which the “activity, higher = inhibition” value (at 19.5 µM (top of the series)) was “inactive”.
`Cc1cccc(N2CCN(C(=O)c3cc4ccccc4oc3=O)CC2)c1C`: the “activity, higher = inhibition” value (at 19.5 µM (top of the series)) was “inactive”.
Take `CCOc1cccc(C(=O)Nc2ccc3oc(Cc4ccc(Cl)cc4)nc3c2)c1`: the “activity, higher = inhibition” value (at 19.5 µM (top of the series)) is “inactive”.
On to `CC(C)C(c1nnnn1CC1CCCO1)N1CCN(C2CCCC2)CC1` (centres undefined), for which, for the setting “at 19.5 µM (top of the series)”, the “activity, higher = inhibition” value was “inactive”.
On to `CC(C)C(NC(=O)c1ccccc1NC(=O)C(C)(C)C)C(=O)N1CCOCC1` (centres undefined), for which the “activity, higher = inhibition” value (at 19.5 µM (top of the series)) was “inactive”.
On to `COc1ccc(CCNc2nnc(Sc3nnnn3-c3ccccc3)s2)cc1OC`, for which the AC50 was 5.92 µM.
Turning to `CCC(=O)Nc1ccc(-c2nnc(SCc3ccc(C(=O)Nc4nccs4)cc3)n2CC)cc1`, for the setting “at 19.5 µM (top of the series)”, the “activity, higher = inhibition” value was “inactive”.
As to `O=C(Nc1nn[nH]n1)c1cc(-c2ccc(Cl)c(Cl)c2Cl)nc2ccccc12`, under “at 19.5 µM (top of the series)”, the “activity, higher = inhibition” value is “inactive”.
Consider `COc1ccc(/C=C2\CN(Cc3ccccc3)C/C(=C\c3ccc(OC)c(O)c3)C2=O)cc1O`, for which the “activity, higher = inhibition” value (at 2.1 µM (top of the series)) was “inactive”.
In the case of `COc1ccc(OC)c(/C=C/c2nc3ccccc3[nH]c2=O)c1`, the “activity, higher = inhibition” value (at 6.8 µM (top of the series)) is “inactive”.
Consider `COc1ccc(-c2cc(-c3nc4ccccn4c3NCc3ccccc3)ccc2OC)cc1`, for which the AC50 was 3.66 µM.
In the case of `COc1ccc(S(=O)(=O)N2c3cc(Cl)ccc3Oc3nc4ccccc4nc32)cc1`, the AC50 is 3.14 µM.
In the case of `COc1ccc(NC(=O)C2(C)Cc3c(-c4cccc(NC(C)=O)c4)ccnc3O2)cn1` (centres undefined), the AC50 is 8.99 µM.
Turning to `Cc1ccc(-n2c(SCC(=O)Nc3ccc4c(c3)OCO4)nnc2-c2cccs2)cc1`, the “activity, higher = inhibition” value (at 19.5 µM (top of the series)) was “inactive”.
For `Cc1nnc(NC(=O)CSc2nnc(NC(=O)C(C)(C)C)s2)s1`, the “activity, higher = inhibition” value (at 19.5 µM (top of the series)) is “inactive”.
As to `COc1ccc(CC(=O)OCC(=O)Nc2cccc(Br)c2)cc1`, the “activity, higher = inhibition” value (at 19.5 µM (top of the series)) was “inactive”.
On to `O=C1S/C(=C/c2ccc(N3CCOCC3)o2)C(=O)N1Cc1c(F)cccc1Cl`, for which, for the setting “at 0.75 µM (top of the series)”, the “activity, higher = inhibition” value is “inactive”.
Take `CCOc1ccc(Nc2nc3c(C)cccc3cc2C#N)cc1`: the AC50 was 11.9 µM.
`CC1CN(S(=O)(=O)c2ccc(C(=O)NCCCn3ccnc3)cc2)CC(C)O1` (centres undefined): the “activity, higher = inhibition” value (at 19.5 µM (top of the series)) is “inactive”.
As to `COC(=O)c1ccc2c(=O)n(Cc3ccco3)c(SCC(=O)Nc3cc(C)on3)nc2c1`, the “activity, higher = inhibition” value (at 19.5 µM (top of the series)) was “inactive”.
In the case of `O=C(CCNC(=O)c1ccco1)Nc1ccc(OC(F)(F)F)cc1`, the “activity, higher = inhibition” value (at 19.5 µM (top of the series)) was “inactive”.
Take `COc1ccc2cc(CCNS(=O)(=O)c3ccc(NC(C)=O)cc3)c(=O)[nH]c2c1`: the “activity, higher = inhibition” value (at 19.5 µM (top of the series)) was “inactive”.
Consider `CC(C)CN1C(=O)C(=O)N(CC(=O)c2ccc3c(c2)OCO3)C1=O`, for which the “activity, higher = inhibition” value (at 19.5 µM (top of the series)) is “inactive”.
Turning to `O=C(c1cc(-c2ccncc2)nc2ccccc12)N1CCN(Cc2ccccc2)CC1`, the “activity, higher = inhibition” value (at 19.5 µM (top of the series)) was “inactive”.
In the case of `CCOc1ccc(N2C(=O)/C(=C/c3cccs3)N(CC(=O)OC)C2=S)cc1`, the AC50 was > 19.5 µM (inactive).
For `CC(C)OC(=O)c1cn(-c2ccccc2)nc1-c1ccc2c(c1)OCCO2`, the “activity, higher = inhibition” value (at 19.5 µM (top of the series)) is “inactive”.
As to `Nc1nc(-c2ccc3ccccc3c2)cs1`, the “activity, higher = inhibition” value (at 19.5 µM (top of the series)) is “inactive”.
`CCc1cccc2cc3c(N)c(C(=O)Nc4ccc(S(=O)(=O)N5CCCC5)cc4)sc3nc12`: the “activity, higher = inhibition” value (at 6.8 µM (top of the series)) was “inactive”.
Turning to `CC(C)C(=O)N=C1SC2CS(=O)(=O)CC2N1Cc1ccccc1` (centres undefined), under “at 19.5 µM (top of the series)”, the “activity, higher = inhibition” value is “inactive”.
Turning to `O=C(/C=C/c1ccccc1)Nc1ncn[nH]1`, the AC50 is 19.5 µM.
On to `COc1cccc(N2CCN(S(=O)(=O)c3cc4c(cc3C)N(C)CCO4)CC2)c1`, for which the “activity, higher = inhibition” value (at 19.5 µM (top of the series)) is “inactive”.
Regarding `Cc1ccc(CNC(=O)c2cccc3c2C(=O)c2ccc(N4CCC(C)CC4)cc2S3(=O)=O)cc1`, the AC50 is 14.4 µM.
As for `Cc1cccc2cc(COC(=O)c3ccco3)c(=O)[nH]c12`, the “activity, higher = inhibition” value (at 19.5 µM (top of the series)) was “inactive”.
`Nc1nonc1-c1nc2ccccc2n1CC(=O)NC1CCCC1`: the “activity, higher = inhibition” value (at 19.5 µM (top of the series)) is “inactive”.
Consider `COc1ccccc1Oc1coc2cc(OCC(N)=O)ccc2c1=O`, for which, under “at 19.5 µM (top of the series)”, the “activity, higher = inhibition” value was “inactive”.
In the case of `N#Cc1c2ccc(OCC(N)=O)cc2n2ccccc12`, under “at 19.5 µM (top of the series)”, the “activity, higher = inhibition” value is “inactive”.
As to `COc1ccc(-c2nc(-c3ccccn3)nc(N3CCN(C)CC3)c2C#N)cc1`, the “activity, higher = inhibition” value (at 19.5 µM (top of the series)) was “inactive”.
As for `FC(F)(F)c1nnc2c3ccccc3c(Cl)nn12`, the AC50 is 12.5 µM.
Same read-out and setting: with `COc1cc2ccccc2cc1C(=O)Nc1ccc(Cl)cn1` the figure was 13 µM.
`O=C(NC1CCCc2ccccc21)c1ccccc1Br` (centres undefined): under “at 19.5 µM (top of the series)”, the “activity, higher = inhibition” value was “inactive”.
For `O=C(c1cc(Cl)c(=O)n(Cc2ccccc2)c1)N1CCOCC1`, where the note is “at 19.5 µM (top of the series)”, the “activity, higher = inhibition” value is “inactive”.
As to `O=C(COC(=O)c1ccccc1Br)NC1CCCC1`, the “activity, higher = inhibition” value (at 19.5 µM (top of the series)) is “inactive”.
On to `O=C(Nc1cnccn1)Nc1ccccc1Cl`, for which the “activity, higher = inhibition” value (at 19.5 µM (top of the series)) was “inactive”.
Still for that read-out and setting: the same measure for `CC(=O)Nc1cc(NC(=O)C2C3C=CC(C3)C2C(=O)O)ccc1Cl` (centres undefined): “inactive”.
As to `Cc1ccnc(NC(=O)CCCOc2cc(=O)n(C)c3ccccc23)c1`, the AC50 is 1.79 µM.
Regarding `Cc1cc(NC(=O)CSc2nc3ccccc3c(=O)n2-c2ccccc2)no1`, the “activity, higher = inhibition” value (at 19.5 µM (top of the series)) is “inactive”.
With `O=C(c1cc(-c2ccccc2O)on1)N1CCCCCC1`, the “activity, higher = inhibition” value (at 19.5 µM (top of the series)) was “inactive”.
The same measure, in the same setting: with `CCOC(=O)C1CCN(S(=O)(=O)c2cccc(-c3cn4cc(C)ccc4n3)c2)CC1` the entry was “inactive”.
In the case of `Oc1ccc(-c2nc(-c3ccc(O)c(O)c3)cs2)cc1`, the AC50 was 9.83 µM.
With `CCN(CC)C(=O)c1ccc(C(=O)c2c(C)cc(C)cc2C)cc1`, for the setting “at 19.5 µM (top of the series)”, the “activity, higher = inhibition” value was “inactive”.
For the compound `CCOC(=O)c1[nH]c2c(c1C)C(=O)CC(c1ccco1)C2` (centres undefined), the AC50 was 5.79 µM.

For orientation: AC50 means the midpoint of the concentration-response curve, whichever way the signal moves.

The record behind these values is PubChem BioAssay AID652241 (Broad Institute, 2013).
